# Measurements from US6355428B1, “Nucleic acid ligand interaction assays” (Genelabs Technologies, Inc., priority 1998, dated 2002).
# How the values were obtained:
# [1] = system: CCGCGCC (GC-rich) DNA duplex (SEQ ID NO: 6); assay: SPA (scintillation proximity) direct binding assay, G/C-rich indicator duplex
# Source text: This technology can be applied to studies of ligand binding as disclosed herein. Example 13, below, describes the use of the assay in a high throughput screening method, using the SPA detection system. In this example, the first oligonucleotide is labeled with biotin, and is then tightly bound to streptavidin-coated SPA beads via the strong biotin/streptavidin interaction. These beads are impregnated with scintillant. The second oligonucleotide is labeled with a weak β-emitter, such as ^3H or ^33P. The radioactive second oligonucleotide is mixed with a solution of the beads under conditions at which the first and second oligonucleotides exist primarily as single strands, as described above. The signal will thus be low, as the oligonucleotides are non-hybridized. When ligand is added, the duplex form is stabilized, and the increased proximity of the radioactive isotope (e.g., ^3H, ^33P) in the second oligonucleotide causes the bead to which the first oligonucleotide is bound to scintillate. A signal thus indicates the presence of an effective binding ligand molecule; test sequences giving higher signals indicate the relative preference for different sequences.
# The data in Table II compare raw signal counts from SPA assays using three different oligonucleotides and three concentrations (0, 100, and 500 nM) of the DNA binding drug distamycin. The oligonucleotides used were G/C-rich (CCGCGCC; SEQ ID NO: 6), A/T-rich (CTTTATTATTTT; SEQ ID NO: 2), or mixed sequence (GCGGTATTT; SEQ ID NO: 12) DNA duplexes. One strand of the duplex was synthesized with a 5′-biotin label, the other strand was labeled with ^33P, as described in Example 13.
# Indicator oligonucleotides as shown in Table 1 were used in this assay, as shown in Table II and FIGS. 4A-E. One strand of each duplex was labeled with biotin at the 5′-end, and the complementary strand was 3′-labeled with ^33P. […] In the absence of ligand, and under these conditions, the oligonucleotides exist in single-stranded conformation. As a result, the oligonucleotide containing the radioactive label is not in close proximity to the SPA bead, and the light given off by the beads is low, i.e., at background. As a duplex-stabilizing ligand is added, the radioactive ^33P is brought into close proximity to the SPA bead, and the light emitted from the SPA bead increases. Accordingly, each of five known DNA-binding compounds was added in increasing concentrations, and the effect on scintillation count was observed, giving the results shown in FIGS. 4A-E.
# [2] = system: A/T rich indicator duplex 5′-CTTTATTATTTT-3′ (SEQ ID NO: 2 and complement) versus competitor oligonucleotides; assay: Fluorescence quenching competition assay with unlabeled competitor duplexes; assay type: binding; settings: for sequence preference from competitor oligos of Table III (FIG. 6): 0.4 μM drug, 0.4 μM unlabeled duplex competitor; for 5 bp A/T site bound most strongly / preferred (FIGS. 11, 12) / discrimination among 5 bp A/T binding sites (FIGS. 11, 12): 5 bp A+T site competitors, Table VI
# Source text: Direct assays, as described above, are useful for first level screening of ligand-oligonucleotide binding, e.g. preference for DNA vs. RNA, or A/T vs. C/G rich sequences. In a “next-stage” assay, termed herein a competition or competitive assay, a binding oligonucleotide for a particular ligand, such as determined from direct assays, is used as an “indicator” for competitive studies, which give a further level of detail about ligand binding preferences. A competition experiment starts with first and second indicator oligonucleotides, as described above, containing, respectively, a first group effective to produce a detectable signal, and a second group effective to alter this signal. At the beginning of the assay, the ligand is bound to a duplex of the sequences. Again, experimental conditions of temperature, salt content, etc. are preferably adjusted such that, in the absence of the ligand, the oligonucleotides would exist primarily in single-stranded form. As noted above, the preferred temperature is somewhat higher than the Tm of the duplex (in the absence of ligand) under the conditions of the assay. If desired, for the sake of convenience, conditions may be adjusted so that the assay can be carried out at or near room temperature.
# At the beginning of the assay, the indicator sequences form a duplex in the presence of the ligand, so fluorescence is at a minimum for the system. (When other detection systems are used, the signal observed will be that in which the first and second groups are in close proximity.) A “competitor” sequence, having no second (e.g. quenching) group, is then added, typically as a duplex with its complementary sequence. The competing sequence tends to remove the ligand from the indicator duplex at concentrations that become lower as the affinity of the competing sequence for the ligand becomes greater. Alternatively, the competing sequence removes the ligand more effectively at concentrations equimolar with the indicator duplex as the affinity of the competing sequence for the ligand becomes greater. As the ligand is removed, the indicator sequences denature to single-stranded form, quenching is no longer effective (in an F/Q system), and fluorescence increases.
# Competition Assays: Competition experiments were generally done in […] HEPES, pH 7.5, 0.1 mM EDTA and 50 mM NaCl. The drug concentration used in the competition assays depends upon the affinity of the drug for a given indicator. For the competition experiments shown, the netropsin and distamycin concentrations used were 0.4 μM. The amount of competitor oligo used was varied from 0.2 μM to 1.0 μM. The data shown is from competition experiments using 0.4 μM unlabeled duplex competitors (see Tables III-VI for the sequences of the competitor oligos).
# An unlabeled competitor duplex, selected from those whose sequences are given in Table […], was added at a 0.4 μM concentration, and the change in fluorescence was noted.
# Changes in fluorescence of the indicator duplex/netropsin mixture on adding each competitor oligonucleotide are given in FIG. 12.
# [3] = 5′-XAATTY-3′ competitor series, Table V
SMILES,"CPM ([1]; 100 nM Distamycin, 10 mM Na+) [CPM]","CPM ([1]; 100 nM Distamycin, 50 mM Na+) [CPM]","CPM ([1]; 500 nM Distamycin, 10 mM Na+) [CPM]","CPM ([1]; 500 nM Distamycin, 50 mM Na+) [CPM]",sequence preference from competitor oligos of Table III (FIG. 6) [2],"5 bp A/T site bound most strongly / preferred (FIGS. 11, 12) [2]","discrimination among 5 bp A/T binding sites (FIGS. 11, 12) [2]","X and Y combinations that competed most effectively (FIG. 9) [2, 3]","sensitivity to bases at the edge of the AATT site (FIGS. 9 and 10) [2, 3]",preferred 5 bp binding site ([2]; concluded from 5′-XAATTY-3′ series)
"Cn1cc(NC(=O)c2cc(NC(=O)c3cc(NC=O)cn3C)cn2C)cc1C(=O)NCCC(=N)N [Distamycin, distamycin]",699,889,744,666,strongly prefer A/T rich DNA,5′-AATTA-3′,relatively strong preferences,"AA/TT, CA/TG, GA/TC, and TA/TA",much more sensitive,5′-AATTA-3′
"Cn1cc(NC(=O)c2cc(NC(=O)CN=C(N)N)cn2C)cc1C(=O)NCCC(=N)N [Netropsin, netropsin]",–,–,–,–,strongly prefer A/T rich DNA,slight preference for the AAAAA site,considerably less discrimination,–,–,–
